Among the data in ChEMBL document CHEMBL1122738, “A cyclic angiotensin antagonist: [1,8-cysteine]angiotensin II” (1984) are minimal effective concentration values, retold here.

Structures are written as SMILES. Positions of bridges follow the written chain, without caps; N, C: chain ends. Residues, ends and D or L forms follow the SMILES beside them. Chains are numbered I, II in the order given.

The species entered for the experiment is Rattus norvegicus. Kind of experiment: Minimum effective concentration required to abolish the response to an ED75 dose of ANG II (10e-8 M) in the isolated rat uterus assay. The class given is functional. Particulars: read-out: MEC.

With `CC[C@H](C)[C@H](NC(=O)[C@@H]1CCCN1C(=O)[C@H](Cc1c[nH]cn1)NC(=O)[C@@H](NC(=O)[C@H](Cc1ccc(O)cc1)NC(=O)[C@@H](NC(=O)[C@H](CCCN=C(N)N)NC(=O)CNC)C(C)C)[C@@H](C)CC)C(=O)O`, the minimal effective concentration worked out at 0.021 µM.

Take `CC[C@H](C)[C@@H]1NC(=O)[C@H](Cc2ccc(O)cc2)NC(=O)[C@H](C(C)C)NC(=O)[C@H](CCCN=C(N)N)NC(=O)[C@@H](N)CSSC[C@H](N)C(=O)N[C@@H](CCCN=C(N)N)C(=O)N[C@@H](C(C)C)C(=O)N[C@@H](Cc2ccc(O)cc2)C(=O)N[C@@H]([C@@H](C)CC)C(=O)N[C@@H](Cc2c[nH]cn2)C(=O)N2CCC[C@H]2C(=O)N[C@H](C(=O)O)CSSC[C@@H](C(=O)O)NC(=O)[C@@H]2CCCN2C(=O)[C@H](Cc2c[nH]cn2)NC1=O` (I: H-CRVYIHPC-OH / II: H-CRVYIHPC-OH; disulfide I:1-II:1, I:8-II:8): the minimal effective concentration was found to be 9.6 µM. For the compound `CC[C@H](C)[C@H](NC(=O)[C@H](Cc1ccc(O)cc1)NC(=O)[C@@H](NC(=O)[C@H](CCCN=C(N)N)NC(=O)[C@@H](N)CSCNC(C)=O)C(C)C)C(=O)N[C@@H](Cc1c[nH]cn1)C(=O)N1CCC[C@H]1C(=O)N[C@@H](CSCNC(C)=O)C(=O)O`, the minimal effective concentration was found to be 0.24 µM. Turning to `CC[C@H](C)[C@@H]1NC(=O)[C@H](Cc2ccc(O)cc2)NC(=O)[C@H](C(C)C)NC(=O)[C@H](CCCN=C(N)N)NC(=O)[C@@H](N)CSSC[C@@H](C(=O)O)NC(=O)[C@@H]2CCCN2C(=O)[C@H](Cc2c[nH]cn2)NC1=O` (H-CRVYIHPC-OH; disulfide 1-8), the minimal effective concentration came to 3.3 µM.
